These results are taken from patent US7932281B2, “Amine-based compound and use thereof” (Kureha Corporation, priority 2004, dated 2011).

Each structure is given as a SMILES string.

For series [1], the system named is HIV-1IIIB infected MT-4 cells. Briefly: Anti-HIV activity, HIV-1IIIB infected MT-4 cells, MTT method (Test Example 1). The class given is cell-based. As to conditions: Human immunodeficiency virus 1, MT4, 120 h, concentration required for inhibition of cell disorder due to HIV infection by 50%, MOI 0.01, 5 days. How it is done:
Immediately after infection, HIV-1IIIB infected MT-4 cells (3.0×10^4/well, MOI (Multiplicity of infection): 0.01) were added to a 96-well microtiter plate together with the test compounds having different concentrations. The cells were cultured in a carbon dioxide incubator at 37° C. for 5 days, and the number of living cells was measured in accordance with the MTT (tetrazolium) method ([…], et al., J. of Virol. Method, 20, 309-321 […]). The antiviral activity is represented by the concentration required for inhibition of cell disorder due to HIV infection by 50% (EC50: 50% Effective Concentration) (μM), and the results are shown in Table 2.

In a further series the target is T1, CXCR4 (Homo sapiens, UniProt P61073).
T1 construct: endogenous in cells; host or cells: MT-4 cells
T1 sequence (P61073 whole entry): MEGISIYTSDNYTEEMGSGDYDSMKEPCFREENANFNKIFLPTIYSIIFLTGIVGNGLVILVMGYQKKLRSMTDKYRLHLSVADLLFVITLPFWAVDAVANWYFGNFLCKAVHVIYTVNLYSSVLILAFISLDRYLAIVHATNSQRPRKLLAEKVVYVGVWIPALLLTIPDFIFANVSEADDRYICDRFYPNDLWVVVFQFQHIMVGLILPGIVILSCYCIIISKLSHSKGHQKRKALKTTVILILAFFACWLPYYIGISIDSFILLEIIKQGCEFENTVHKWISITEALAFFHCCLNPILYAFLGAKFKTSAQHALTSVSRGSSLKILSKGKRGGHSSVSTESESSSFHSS
Kind of series: Inhibition of 125I-SDF-1α binding to receptors CXCR4 on MT-4 cells (Test Example 2). As to conditions: binding-inhibition % at 0.01 μM, 2 hours under ice-cooling, read-out: Inhibition rate (%). How it is done: MT-4 cells (5×10^6/0.2 ml/well) were cultured on a 24-well microtiter plate. After the cells were incubated for 24 hours at 37° C. in a carbon dioxide gas incubator, a culture medium was replaced with a buffer solution (0.1% BSA-containing RPMI-1640). Together with a ligand ^125I-SDF-1α (specific activity: 2,200 Ci/mmol; available from Daiichi Pure Chemicals Co., Ltd. (Tokyo)), test materials with various concentrations were subjected to a binding reaction for 2 hours under ice-cooling. […] Then, a rate of inhibition of the binding between radioactive ligands and receptors CXCR4 by a test material was calculated (a binding-inhibition % at 0.01 μM).

The next series relates to SD mice. Kind of series: Acute toxicity, single transvenous administration (Test Example 3). The class given is in vivo. The settings on record: 6-week-old male SD mice, 2.5 mg/kg transvenously once in physiological saline. On the procedure: The aforementioned compound was examined for acute toxicity. Specifically, 6-week-old SD mice (male) were divided into several groups (2 to 3 mice in each group). Subsequently, each of the compounds of Examples was dissolved in a physiological saline solution, and the solution was transvenously administered to the mice (dose: 2.5 mg/kg) once. Then, the number of dead mice was counted.

In series [1], `CCCN(CCC)CCCCN(CCO)Cc1ccc(CN(Cc2ncc[nH]2)Cc2nccn2C)cc1` [Compound No. 1, 2-[(4-dipropylamino-butyl)-(4-{[(1H-imidazol-2-ylmethyl)-(1-methyl-1H-imidazol-2-ylmethyl)-amino]-methyl}-benzyl)-amino]-ethanol] returned a concentration for a half-maximal effect (EC50) of 3 nM. The inhibition at 0.01 µM on CXCR4 turned out to be 87.9%. Besides, in the series on SD mice, the Dead mice/test mice is 0/3.

On to `CCCN(CCC)CCCCc1nc2ccc(CN(Cc3ncc[nH]3)Cc3ncc[nH]3)cc2n1CCC` [Compound No. 3, [4-(6-{[bis-(1H-imidazol-2-ylmethyl)-amino]-methyl}-1-propyl-1H-benzimidazol-2-yl)-butyl]-dipropyl-amine], for which the EC50 in series [1] was 3 nM. For the same compound, the inhibition at 0.01 µM at CXCR4 came out at 71.4%. In addition, the Dead mice/test mice in the series with SD mice is given as 0/3.

`CCCN(CCC)CCCCc1nc2ccc(CN(Cc3ncc[nH]3)Cc3nccn3C)cc2n1CCC` [Compound No. 4, [4-(6-{[(1H-imidazol-2-ylmethyl)-(1-methyl-1H-imidazol-2-ylmethyl)-amino]-methyl}-1-propyl-1H-benzimidazol-2-yl)-butyl]-dipropyl-amine] gave a concentration for a half-maximal effect (EC50) in series [1] of 3 nM. In addition, the inhibition at 0.01 µM at CXCR4 worked out at 94.9%. The Dead mice/test mice with SD mice is 0/3.

On to `CCCN(CCC)CCCCc1nc2cc(CN(Cc3ncc[nH]3)Cc3nccn3C)ccc2n1CCC` [Compound No. 5, [4-(5-{[(1H-imidazol-2-ylmethyl)-(1-methyl-1H-imidazol-2-ylmethyl)-amino]-methyl}-1-propyl-1H-benzimidazol-2-yl)-butyl]-dipropyl-amine], for which the EC50 in series [1] was 9 nM. At CXCR4, the inhibition at 0.01 µM stood at 67%. The Dead mice/test mice with SD mice is recorded as 0/3.

With `CCCN(CCC)CCCCN(C)Cc1ccc(CNCc2nccn2Cc2nccn2C)cc1` [Compound No. 10], it took 9 nM to reach a half-maximal effect in series [1] (EC50). In addition, on CXCR4, the inhibition at 0.01 µM came out at 20.4%. Also, in the series on SD mice, the Dead mice/test mice is given as 0/3.

The compound `CCCN(CCC)CCCCc1nc2ccc(CN(Cc3ncc[nH]3)Cc3nccn3C)cc2n1C` [Compound No. 13, [4-(6-{[(1H-imidazol-2-ylmethyl)-(1-methyl-1H-imidazol-2-ylmethyl)-amino]-methyl}-1-methyl-1H-benzimidazol-2-yl)-butyl]-dipropyl-amine] displayed a concentration giving a half-maximal response (EC50) in series [1] of 3 nM. On CXCR4, the inhibition at 0.01 µM amounted to 75.5%. In addition, the Dead mice/test mice with SD mice is listed as 0/3.

`CCCN(CCC)CCCC1NC(=O)c2ccc(CN(Cc3ncc[nH]3)Cc3nccn3C)cc2NC1=O` (stereo not shown) [Compound No. 14, 3-(3-dipropylaminopropyl)-8-{[(1H-imidazol-2-ylmethyl)-(1-methyl-1H-imidazol-2-ylmethyl)-amino]-methyl}-3,4-dihydro-1H-benzo[e][1,4]diazepin-2,5-dione] displayed an EC50 in series [1] of 6 nM. In addition, the inhibition at 0.01 µM at CXCR4 worked out at 32.9%. In addition, the Dead mice/test mice in the series with SD mice is 0/3.

`CCCN(CCC)Cc1ccc(NC(=O)c2ccc(CN(Cc3ncc(C)cc3C)Cc3nccn3C)cc2)cc1` [Compound No. 15, 4-{[(3,5-dimethyl-pyridin-2-ylmethyl)-(1-methyl-1H-imidazol-2-ylmethyl)-amino]-methyl}-N-(4-dipropylaminomethyl-phenyl)-benzamide]: in series [1], the EC50 is 6 nM. At CXCR4, the inhibition at 0.01 µM is 74%. For the same compound, in the series with SD mice, the Dead mice/test mice is given as 0/3.

In the case of `CCCN(CCC)Cc1ccc(NC(=O)c2ccc(CN(Cc3ccc(CC)cn3)Cc3nccn3C)cc2)cc1` [Compound No. 16, 4-{[(5-ethyl-pyridin-2-ylmethyl)-(1-methyl-1H-imidazol-2-ylmethyl)-amino]-methyl}-N-(4-dipropylaminomethyl-phenyl)-benzamide], the EC50 in series [1] stood at 3 nM. Moreover, the inhibition at 0.01 µM at CXCR4 was 46.9%. For the same compound, in the series with SD mice, the Dead mice/test mice is 0/3.

On to `CCCN(CCC)CCCCN1CCc2cc(CN(Cc3ncc[nH]3)Cc3nccn3C)ccc2C1` [Compound No. 17, [4-(6-{[(1H-imidazol-2-ylmethyl)-(1-methyl-1H-imidazol-2-ylmethyl)-amino]-methyl}-3,4-dihydro-1H-isoquinolin-2-yl)-butyl]-dipropyl-amine], for which the half-maximal effective concentration (EC50) in series [1] is 3 nM. For the same compound, at CXCR4, the inhibition at 0.01 µM stood at 93.5%. The Dead mice/test mice in the series on SD mice is 0/3.

For `CCCN(CCC)CCCCNC(=O)c1ccc(CN(Cc2ccc(C)cn2)Cc2nccn2C)cc1` [Compound No. 20, N-(4-dipropylamino-butyl)-4-{[(1-methyl-1H-imidazol-2-ylmethyl)-(5-methyl-pyridin-2-ylmethyl)-amino]-methyl}-benzamide], the 50% effective concentration (EC50) in series [1] amounted to 4 nM. Besides, at CXCR4, the inhibition at 0.01 µM is 73.2%. The Dead mice/test mice in the series with SD mice was 0/3.

For the compound `CCCN(CCC)CCCCN(Cc1ccc(CN(Cc2ncc[nH]2)Cc2nccn2C)cc1)S(C)(=O)=O` [Compound No. 21, N-(4-dipropylamino-butyl)-N-(4-{[(1H-imidazol-2-ylmethyl)-(1-methyl-1H-imidazol-2-ylmethyl)-amino]-methyl}-benzyl)-methanesulfonamide], in series [1], the response was half-maximal at 46 nM (EC50). The inhibition at 0.01 µM at CXCR4 amounted to 59.2%. Also, the Dead mice/test mice with SD mice is 0/3.

In series [1], `CCCN(CCC)CCCCN(Cc1ccc(CN(Cc2ncc[nH]2)Cc2nccn2C)cc1)S(=O)(=O)c1ccc(C)cc1` [Compound No. 22, N-(4-dipropylamino-butyl)-N-(4-{[(1H-imidazol-2-ylmethyl)-(1-methyl-1H-imidazol-2-ylmethyl)-amino]-methyl}-benzyl)-4-methyl-benzenesulfonamide] had an EC50 of 106 nM. At CXCR4, the inhibition at 0.01 µM turned out to be 84.3%. The Dead mice/test mice in the series with SD mice is on record as 0/3.

The compound `CCCN(CCC)CCCCN(CC)Cc1ccc(CN(Cc2ncc[nH]2)Cc2nccn2C)cc1` [Compound No. 23, N-ethyl-N-(4-{[(1H-imidazol-2-ylmethyl)-(1-methyl-1H-imidazol-2-ylmethyl)-amino]-methyl}-benzyl)-N′,N′-dipropyl-butane-1,4-diamine] registered an EC50 in series [1] of 3 nM. Also, the inhibition at 0.01 µM on CXCR4 came out at 78.2%. Further, in the series on SD mice, the Dead mice/test mice was 0/3.

Take `CCCN(CCC)CCCCN(Cc1ccc(CN(Cc2ncc[nH]2)Cc2nccn2C)cc1)c1ccccc1` [Compound No. 24, N-(4-{[(1H-imidazol-2-ylmethyl)-(1-methyl-1H-imidazol-2-ylmethyl)-amino]-methyl}-benzyl)-N-phenyl-N′,N′-dipropyl-butane-1,4-diamine]: the midpoint of the response in series [1], the EC50, lay at 95 nM. Moreover, on CXCR4, the inhibition at 0.01 µM was 50.1%. For the same compound, in the series on SD mice, the Dead mice/test mice was 0/3.

`CCCN(CCC)CCOCCN(C)Cc1ccc(CN(Cc2ncc[nH]2)Cc2nccn2C)cc1` [Compound No. 109, (2-{2-[(4-{[(1H-imidazol-2-ylmethyl)-(1-methyl-1H-imidazol-2-ylmethyl)-amino]-methyl}-benzyl)-methyl-amino]-ethoxy}-ethyl)-dipropyl-amine] came in with an EC50 in series [1] of 4 nM. Besides, at CXCR4, the inhibition at 0.01 µM was 94.3%.

In turn, `CCCN(CCC)CCCCN(Cc1ccc(CN(Cc2ncc[nH]2)Cc2nccn2C)cc1)Cc1nnn[nH]1` [Compound No. 110, N-(4-{[(1H-imidazol-2-ylmethyl)-(1-methyl-1H-imidazol-2-ylmethyl)-amino]-methyl}-benzyl)-N′,N′-dipropyl-N-(1H-tetrazol-5-ylmethyl)-butane-1,4-diamine] displayed an EC50 in series [1] of 4 nM. For the same compound, on CXCR4, the inhibition at 0.01 µM was 71.4%.

In series [1], `CCCN(CCC)CCCCN(C)C(C(=O)OCC)c1ccc(CN(Cc2ncc[nH]2)Cc2nccn2C)cc1` (stereo not shown) [Compound No. 119, [(4-dipropylamino-butyl)-methyl-amino]-(4-{[(1H-imidazol-2-ylmethyl)-(1-methyl-1H-imidazol-2-ylmethyl)-amino]-methyl}-phenyl)-acetic acid ethyl ester] had an EC50 of 4 nM. Besides, the inhibition at 0.01 µM at CXCR4 was 72.7%.

On to `CCCN(CCC)CCCCN(C)C(C(=O)O)c1ccc(CN(Cc2ncc[nH]2)Cc2nccn2C)cc1` (stereo not shown) [Compound No. 120, [(4-dipropylamino-butyl)-methyl-amino]-(4-{[(1H-imidazol-2-ylmethyl)-(1-methyl-1H-imidazol-2-ylmethyl)-amino]-methyl}-phenyl)-acetic acid], for which the response in series [1] was half-maximal at 4 nM (EC50). The inhibition at 0.01 µM at CXCR4 was 79.7%.

For the compound `CCCN(CCC)CCCCN(C)Cc1ccc(CN(Cc2ncc[nH]2)Cc2nccn2C)cc1C(=O)O` [Compound No. 122, 2-{[(4-dipropylamino-butyl)-methyl-amino]-methyl}-5-{[(1H-imidazol-2-ylmethyl)-(1-methyl-1H-imidazol-2-ylmethyl)-amino]-methyl}-benzoic acid], the EC50 in series [1] was determined as 4 nM. At CXCR4, the inhibition at 0.01 µM came out at 71.3%.
